Assay results taken from US20140343000A1 (priority 2011, published 2014).

Tested on: recombinant NL4-3 virus (Renilla luciferase in nef, Gag P373S; NLRluc) in MT-2 cells
Assay: whole plant or invertebrate
Assay type: cell-based, HIV
Conditions: Renilla, NL43, luciferase activity in cells infected for 4-5 days with NLRluc recombinants, serial dilutions of inhibitor; class symbols (key in Table 1); read-out: EC50
Summary of the method: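 Read-out is Renilla luciferase, measured immediately after adding a premixed lysis/Dual Luciferase reagent. The reporter virus, NL4-3 with luciferase replacing part of nef plus Gag P373S, infected MT-2 cells for 4–5 days under serially diluted inhibitor.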

| Structure (SMILES) | EC50 [µM] |
| --- | --- |
| C=C(C)[C@@H]1CC[C@]2(NC(=O)C(=O)Nc3nncs3)CC[C@]3(C)[C@H](CC[C@@H]4[C@@]5(C)CC=C(c6ccc(C(=O)O)cc6)C(C)(C)[C@@H]5CC[C@]43C)[C@@H]12 [Example 78, 4-((1R,3aS,5aR,5bR,7aR,11aS,11bR,13aR,13bR)-3a-(2-(1,3,4-thiadiazol-2-ylamino)-2-oxoacetamido)-5a,5b,8,8,11a-pentamethyl-1-(prop-1-en-2-yl)-2,3,3a,4,5,5a,5b,6,7,7a,8,11,11a,11b,12,13,13a,13b-octadecahydro-1H-cyclopenta[a]chrysen-9-yl)benzoic acid] | < 0.1 |
| C=C(C)[C@@H]1CC[C@]2(NC(=O)NCCCN3CCOCC3)CC[C@]3(C)[C@H](CC[C@@H]4[C@@]5(C)CC=C(c6ccc(C(=O)O)cc6)C(C)(C)[C@@H]5CC[C@]43C)[C@@H]12 [Example 11, 4-((1R,3aS,5aR,5bR,7aR,11aS,11bR,13aR,13bR)-5a,5b,8,8,11a-pentamethyl-3a-(3-(3-morpholinopropyl)ureido)-1-(prop-1-en-2-yl)-2,3,3a,4,5,5a,5b,6,7,7a,8,11,11a,11b,12,13,13a,13b-octadecahydro-1H-cyclopenta[a]chrysen-9-yl)benzoic acid] | < 0.1 |
| C=C(C)[C@@H]1CC[C@]2(NC(=O)N(C)CCn3ccc4ccccc43)CC[C@]3(C)[C@H](CC[C@@H]4[C@@]5(C)CC=C(c6ccc(C(=O)O)cc6)C(C)(C)[C@@H]5CC[C@]43C)[C@@H]12 [Example 48, 4-((1R,3aS,5aR,5bR,7aR,11aS,11bR,13aR,13bR)-3a-(3-(2-(1H-indol-1-yl)ethyl)-3-methylureido)-5a,5b,8,8,11a-pentamethyl-1-(prop-1-en-2-yl)-2,3,3a,4,5,5a,5b,6,7,7a,8,11,11a,11b,12,13,13a,13b-octadecahydro-1H-cyclopenta[a]chrysen-9-yl)benzoic acid] | < 0.1 |
| C=C(C)[C@@H]1CC[C@]2(NCCNS(=O)(=O)C3CC3)CC[C@]3(C)[C@H](CC[C@@H]4[C@@]5(C)CC=C(c6ccc(C(=O)O)cc6)C(C)(C)[C@@H]5CC[C@]43C)[C@@H]12 [Example B31, 4-((1R,3aS,5aR,5bR,7aR,11aS,11bR,13aR,13bR)-3a-((2-(cyclopropanesulfonamido)ethyl)amino)-5a,5b,8,8,11a-pentamethyl-1-(prop-1-en-2-yl)-2,3,3a,4,5,5a,5b,6,7,7a,8,11,11a,11b,12,13,13a,13b-octadecahydro-1H-cyclopenta[a]chrysen-9-yl)benzoic acid] | < 0.1 |
| C=C(C)[C@@H]1CC[C@]2(NCCN3CCN(C(=O)C4(C)CC4)CC3)CC[C@]3(C)[C@H](CC[C@@H]4[C@@]5(C)CC=C(c6ccc(C(=O)O)cc6)C(C)(C)[C@@H]5CC[C@]43C)[C@@H]12 [Example B63, 4-((1R,3aS,5aR,5bR,7aR,11aS,11bR,13aR,13bR)-5a,5b,8,8,11a-pentamethyl-3a-((2-(4-(1-methylcyclopropanecarbonyl)piperazin-1-yl)ethyl)amino)-1-(prop-1-en-2-yl)-2,3,3a,4,5,5a,5b,6,7,7a,8,11,11a,11b,12,13,13a,13b-octadecahydro-1H-cyclopenta[a]chrysen-9-yl)benzoic acid] | < 0.1 |
| C=C(C)[C@@H]1CC[C@]2(NC(=O)N[C@H](C)C(=O)O)CC[C@]3(C)[C@H](CC[C@@H]4[C@@]5(C)CC=C(c6ccc(C(=O)O)cc6)C(C)(C)[C@@H]5CC[C@]43C)[C@@H]12 [Example 19, 4-((1R,3aS,5aR,5bR,7aR,11aS,11bR,13aR,13bR)-3a-(3-((R)-1-carboxyethyl)ureido)-5a,5b,8,8,11a-pentamethyl-1-(prop-1-en-2-yl)-2,3,3a,4,5,5a,5b,6,7,7a,8,11,11a,11b,12,13,13a,13b-octadecahydro-1H-cyclopenta[a]chrysen-9-yl)benzoic acid] | < 0.1 |
| C=C(C)[C@@H]1CC[C@]2(NC(=O)CN3CCC(F)(F)CC3)CC[C@]3(C)[C@H](CC[C@@H]4[C@@]5(C)CC=C(c6ccc(C(=O)O)cc6)C(C)(C)[C@@H]5CC[C@]43C)[C@@H]12 [Example 118, 4-((1R,3aS,5aR,5bR,7aR,11aS,11bR,13aR,13bR)-3a-(2-(4,4-difluoropiperidin-1-yl)acetamido)-5a,5b,8,8,11a-pentamethyl-1-(prop-1-en-2-yl)-2,3,3a,4,5,5a,5b,6,7,7a,8,11,11a,11b,12,13,13a,13b-octadecahydro-1H-cyclopenta[a]chrysen-9-yl)benzoic acid] | < 0.1 |
| C=C(C)[C@@H]1CC[C@]2(NC(=O)[C@@H]3C[C@H](NC(=O)OCc4ccccc4)C3(C)C)CC[C@]3(C)[C@H](CC[C@@H]4[C@@]5(C)CC=C(c6ccc(C(=O)O)cc6)C(C)(C)[C@@H]5CC[C@]43C)[C@@H]12 [Example 130-3, 4-((1R,3aS,5aR,5bR,7aR,11aS,11bR,13aR,13bR)-3a-((1R,3S)-3-(((benzyloxy)carbonyl)amino)-2,2-dimethylcyclobutanecarboxamido)-5a,5b,8,8,11a-pentamethyl-1-(prop-1-en-2-yl)-2,3,3a,4,5,5a,5b,6,7,7a,8,11,11a,11b,12,13,13a,13b-octadecahydro-1H-cyclopenta[a]chrysen-9-yl)benzoic acid] | < 0.1 |
| C=C(C)[C@@H]1CC[C@]2(NC(=O)NCCN3CCCCC3=O)CC[C@]3(C)[C@H](CC[C@@H]4[C@@]5(C)CC=C(c6ccc(C(=O)O)cc6)C(C)(C)[C@@H]5CC[C@]43C)[C@@H]12 [Example 27, 4-((1R,3aS,5aR,5bR,7aR,11aS,11bR,13aR,13bR)-5a,5b,8,8,11a-pentamethyl-3a-(3-(2-(2-oxopiperidin-1-yl)ethyl)ureido)-1-(prop-1-en-2-yl)-2,3,3a,4,5,5a,5b,6,7,7a,8,11,11a,11b,12,13,13a,13b-octadecahydro-1H-cyclopenta[a]chrysen-9-yl)benzoic acid] | < 0.1 |
| C=C(C)[C@@H]1CC[C@]2(NCCN3CCN(S(=O)(=O)Cc4ccccc4)CC3)CC[C@]3(C)[C@H](CC[C@@H]4[C@@]5(C)CC=C(c6ccc(C(=O)O)cc6)C(C)(C)[C@@H]5CC[C@]43C)[C@@H]12 [Example B41, 4-((1R,3aS,5aR,5bR,7aR,11aS,11bR,13aR,13bR)-3a-((2-(4-(benzylsulfonyl)piperazin-1-yl)ethyl)amino)-5a,5b,8,8,11a-pentamethyl-1-(prop-1-en-2-yl)-2,3,3a,4,5,5a,5b,6,7,7a,8,11,11a,11b,12,13,13a,13b-octadecahydro-1H-cyclopenta[a]chrysen-9-yl)benzoic acid] | < 0.1 |
| C=C(C)[C@@H]1CC[C@]2(NC(=O)N3CCN(CCN(C)C)CC3)CC[C@]3(C)[C@H](CC[C@@H]4[C@@]5(C)CC=C(c6ccc(C(=O)O)cc6)C(C)(C)[C@@H]5CC[C@]43C)[C@@H]12 [Example 39, 4-((1R,3aS,5aR,5bR,7aR,11aS,11bR,13aR,13bR)-3a-(4-(2-(dimethylamino)ethyl)piperazine-1-carboxamido)-5a,5b,8,8,11a-pentamethyl-1-(prop-1-en-2-yl)-2,3,3a,4,5,5a,5b,6,7,7a,8,11,11a,11b,12,13,13a,13b-octadecahydro-1H-cyclopenta[a]chrysen-9-yl)benzoic acid] | < 0.1 |
| C=C(C)[C@@H]1CC[C@]2(N(CCN3CCOCC3)CCN3CCOCC3)CC[C@]3(C)[C@H](CC[C@@H]4[C@@]5(C)CC=C(c6ccc(C(=O)O)cc6)C(C)(C)[C@@H]5CC[C@]43C)[C@@H]12 [Example 160, 4-((1R,3aS,5aR,5bR,7aR,11aS,11bR,13aR,13bR)-3a-(bis(2-morpholinoethyl)amino)-5a,5b,8,8,11a-pentamethyl-1-(prop-1-en-2-yl)-2,3,3a,4,5,5a,5b,6,7,7a,8,11,11a,11b,12,13,13a,13b-octadecahydro-1H-cyclopenta[a]chrysen-9-yl)benzoic acid] | < 0.1 |
| C=C(C)[C@@H]1CC[C@]2(NC(=O)CN3CCSCC3)CC[C@]3(C)[C@H](CC[C@@H]4[C@@]5(C)CC=C(c6ccc(C(=O)O)cc6)C(C)(C)[C@@H]5CC[C@]43C)[C@@H]12 [Example 98, 4-((1R,3aS,5aR,5bR,7aR,11aS,11bR,13aR,13bR)-5a,5b,8,8,11a-pentamethyl-1-(prop-1-en-2-yl)-3a-(2-thiomorpholinoacetamido)-2,3,3a,4,5,5a,5b,6,7,7a,8,11,11a,11b,12,13,13a,13b-octadecahydro-1H-cyclopenta[a]chrysen-9-yl)benzoic acid] | < 0.1 |
| C=C(C)[C@@H]1CC[C@]2(NCCNS(C)(=O)=O)CC[C@]3(C)[C@H](CC[C@@H]4[C@@]5(C)CC=C(c6ccc(C(=O)O)cc6)C(C)(C)[C@@H]5CC[C@]43C)[C@@H]12 [Example B21, 4-((1R,3aS,5aR,5bR,7aR,11aS,11bR,13aR,13bR)-5a,5b,8,8,11a-pentamethyl-3a-((2-(methylsulfonamido)ethyl)amino)-1-(prop-1-en-2-yl)-2,3,3a,4,5,5a,5b,6,7,7a,8,11,11a,11b,12,13,13a,13b-octadecahydro-1H-cyclopenta[a]chrysen-9-yl)benzoic acid] | < 0.1 |

Same assay, conditions: Renilla, NL43, luciferase activity in cells infected for 4-5 days with NLRluc recombinants, serial dilutions of inhibitor; numeric values; read-out: EC50

| Structure (SMILES) | EC50 [µM] |
| --- | --- |
| C=C(C)[C@@H]1CC[C@]2(NC(=O)N3CCCN(C)CC3)CC[C@]3(C)[C@H](CC[C@@H]4[C@@]5(C)CC=C(c6ccc(C(=O)O)cc6)C(C)(C)[C@@H]5CC[C@]43C)[C@@H]12 [Example 34, 4-((1R,3aS,5aR,5bR,7aR,11aS,11bR,13aR,13bR)-5a,5b,8,8,11a-pentamethyl-3a-(4-methyl-1,4-diazepane-1-carboxamido)-1-(prop-1-en-2-yl)-2,3,3a,4,5,5a,5b,6,7,7a,8,11,11a,11b,12,13,13a,13b-octadecahydro-1H-cyclopenta[a]chrysen-9-yl)benzoic acid] | 0.002 |
